What all share (assay type): functional
Experiment [1] concerns Campylobacter coli. Nature of the experiment: Antimicrobial activity against Campylobacter coli by disk diffusion method. Background: Agar diffusion results depend on both activity and mobility in agar.
The test system of the next experiment is Campylobacter jejuni. Nature of the experiment: Antimicrobial activity against Campylobacter jejuni by disk diffusion method.
Experiment [2] relates to Campylobacter coli. Nature of the experiment: Antimicrobial activity against Campylobacter coli assessed as resistant rate.

Regarding `O=C(O)c1cn(C2CC2)c2cc(N3CCNCC3)c(F)cc2c1=O` [CIPROFLOXACIN], in the experiment on Campylobacter coli [1], the “diameter of the inhibition zone (DIZ)” value is on record as “>=20 mm”.

`CC[C@H]1OC(=O)[C@H](C)[C@@H](O[C@H]2C[C@@](C)(OC)[C@@H](O)[C@H](C)O2)[C@H](C)[C@@H](O[C@@H]2O[C@H](C)C[C@H](N(C)C)[C@H]2O)[C@](C)(O)C[C@@H](C)C(=O)[C@H](C)[C@@H](O)[C@]1(C)O` [ERYTHROMYCIN]: in the experiment on Campylobacter coli [1], the “diameter of the inhibition zone (DIZ)” value is reported as “>=15 mm”.

Take `CN(C)[C@@H]1C(O)=C(C(N)=O)C(=O)[C@@]2(O)C(O)=C3C(=O)c4c(O)cccc4[C@@](C)(O)[C@H]3C[C@@H]12` [TETRACYCLINE]: the “diameter of the inhibition zone (DIZ)” value in the experiment with Campylobacter jejuni is “<=20 mm”; in the experiment with Campylobacter coli [1] it was “>=26 mm”. The Activity in the experiment with Campylobacter coli [2] was 48%.
